Data from patent US12052991B2, “Substituted pyridinyloxybenzenes and salts thereof and use thereof as herbicidal agents” (Bayer Aktiengesellschaft, priority 2018, dated 2024).

What was measured:
Assay type in all cases: in vivo
[1] = tested on: Veronica persica (VERPE); assay: Herbicidal pre-emergence action, test C (Table C12); settings: visual scoring vs untreated controls
How it was run: (§1)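 Application rates of 1280 or 320 g/ha were delivered as WP or EC formulations in water with 0.5% additive, 600 L/ha, onto soil covering freshly sown seeds in sandy loam. Pots stayed under good greenhouse growth conditions, and efficacy was rated as visual percent after about 3 weeks.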

[2] = tested on: Setaria viridis (SETVI); assay: Herbicidal pre-emergence action, test C (Table C4); settings: dosage 1280 g/ha; visual scoring after about 3 weeks; 100% = plants have died, 0% = like control plants
How it was run: as §1

[3] = tested on: Amaranthus retroflexus (AMARE); assay: Herbicidal post-emergence action (Table B6); settings: visual rating about 3 weeks after treatment, 100% = plants have died, 0% = like control plants
How it was run: (§2)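 Activity was scored visually against untreated plants roughly 3 weeks after treatment, 0% meaning like control and 100% plant death. Application was post-emergence onto green parts at the one-leaf stage, as aqueous suspension/emulsion with 0.5% additive, 600 l/ha, delivering 1280 or 320 g/ha to greenhouse plants in sandy loam.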

[4] = tested on: Amaranthus retroflexus (AMARE); assay: Herbicidal pre-emergence action, test C (Table C6); settings: visual scoring after about 3 weeks, 100% = plants have died, 0% = like control plants
How it was run: as §1

[5] = tested on: Veronica persica (VERPE); assay: Herbicidal post-emergence action (Table B12); settings: visual rating about 3 weeks after treatment, 100% = plants have died, 0% = like control plants
How it was run: as §2

[6] = tested on: Stellaria media (STEME); assay: Herbicidal post-emergence action (Table B8); settings: visual rating about 3 weeks after treatment, 100% = plants have died, 0% = like control plants
How it was run: as §2

[7] = tested on: Poa annua (POAAN); assay: Herbicidal pre-emergence action, test C (Table C3); settings: visual scoring after about 3 weeks, 100% = plants have died, 0% = like control plants
How it was run: as §1

[8] = tested on: harmful plants ABUTH, AMARE, ECHCG, LOLRI, MATIN, POAAN, SETVI, STEME, ALOMY, DIGSA, KCHSC and VERPE; assay: Herbicidal pre-emergence action (test C), summary of Tables C1-C12; settings: application rate of 1280 or 320 g of active ingredient per hectare; summary in words
How it was run: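 Visual % damage versus untreated plants (0% = like control, 100% = died) was scored after about 3 weeks in the greenhouse. Before emergence, seeds sown in sandy loam got a soil-surface spray of compound as WP or EC plus 0.5% additive, using 600 L/ha water at rates of 1280 or 320 g/ha.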

[9] = tested on: Bassia scoparia (KCHSC); assay: Herbicidal post-emergence action (Table B11); settings: visual rating about 3 weeks after treatment, 100% = plants have died, 0% = like control plants
How it was run: as §2

[10] = tested on: Poa annua (POAAN); assay: Herbicidal post-emergence action (Table B3); settings: rated visually after about 3 weeks, 100% = plants have died, 0% = like control plants
How it was run: as §2

[11] = tested on: Bassia scoparia (KCHSC); assay: Herbicidal pre-emergence action, test C (Table C11); settings: dosage 1280 g/ha, visual scoring vs untreated controls
Excerpt: Seeds of mono- and dicotyledonous weed plants were placed in plastic pots in sandy loam soil (doubly sown with one species each of mono- or dicotyledonous weed plants per pot) and covered with soil. The compounds of the invention, formulated in the form of wettable powders (WP) or as emulsion concentrates (EC), were then applied onto the surface of the covering soil as aqueous suspension or emulsion with addition of 0.5% additive at a water application rate of 600 liters per hectare (converted). After the treatment, the pots were placed in a greenhouse and kept under good growth conditions for the test plants. After about 3 weeks, the effect of the preparations was scored visually in comparison with untreated controls as percentages. For example, 100% activity=the plants have died, 0% activity=like control plants. Tables C1 to C12 below show the effects of selected compounds of the general formula (I) according to Table 1 on various harmful plants and an application rate corresponding to 1280 or 320 g/ha, which were obtained by the experimental procedure mentioned above.

[12] = tested on: Abutilon theophrasti (ABUTH); assay: Herbicidal post-emergence action (Table B5); settings: rated visually after about 3 weeks, 100% = plants have died, 0% = like control plants
How it was run: as §2

[13] = tested on: Stellaria media (STEME); assay: Herbicidal pre-emergence action, test C (Table C8); settings: visual scoring after about 3 weeks, 100% = plants have died, 0% = like control plants
How it was run: as §1

[14] = tested on: harmful plants ABUTH, AMARE, ECHCG, LOLRI, MATIN, POAAN, SETVI, STEME, ALOMY, DIGSA, KCHSC and VERPE; assay: Herbicidal post-emergence action, summary of Tables B1-B12; settings: application rate of 1280 or 320 g of active ingredient per hectare; summary in words
How it was run: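 Activity scored by eye roughly 3 weeks post-treatment against untreated plants, from 0% (no effect) to 100% (plants dead). Application rates were 1280 or 320 g/ha, as aqueous WP/EC spray plus 0.5% additive at 600 L/ha, onto one-leaf-stage weeds grown 2–3 weeks in sandy loam.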

[15] = tested on: Digitaria sanguinalis (DIGSA); assay: Herbicidal pre-emergence action, test C (Table C10); settings: dosage 1280 g/ha; visual scoring after about 3 weeks; 100% = plants have died, 0% = like control plants
How it was run: as §1

[16] = tested on: Abutilon theophrasti (ABUTH); assay: Herbicidal pre-emergence action, test C (Table C5); settings: dosage 1280 g/ha; visual scoring after about 3 weeks; 100% = plants have died, 0% = like control plants
How it was run: as §1

| Structure (SMILES) | Pre-emergence action against Veronica persica (VERPE) ([1]; dosage 1280 g/ha) | Pre-emergence action against Setaria viridis (SETVI) [2] | Post-emergence action against Amaranthus retroflexus (AMARE) ([3]; dosage 320 g/ha) | Post-emergence action against Amaranthus retroflexus (AMARE) ([3]; dosage 1280 g/ha) | Pre-emergence action against Amaranthus retroflexus (AMARE) ([4]; dosage 320 g/ha) | Pre-emergence action against Amaranthus retroflexus (AMARE) ([4]; dosage 1280 g/ha) | Post-emergence action against Veronica persica (VERPE) ([5]; dosage 320 g/ha) | Post-emergence action against Veronica persica (VERPE) ([5]; dosage 1280 g/ha) | Post-emergence action against Stellaria media (STEME) ([6]; dosage 320 g/ha) | Post-emergence action against Stellaria media (STEME) ([6]; dosage 1280 g/ha) | Pre-emergence action against Poa annua (POAAN) ([7]; dosage 320 g/ha) | Pre-emergence action against Poa annua (POAAN) ([7]; dosage 1280 g/ha) | herbicidal activity against the harmful plants of Tables C1-C12 in pre-emergence treatment [8] | Post-emergence action against Bassia scoparia (KCHSC) ([9]; dosage 320 g/ha) | Post-emergence action against Bassia scoparia (KCHSC) ([9]; dosage 1280 g/ha) | Post-emergence action against Poa annua (POAAN) ([10]; 320 g/ha) | Post-emergence action against Poa annua (POAAN) ([10]; 1280 g/ha) | Pre-emergence action against Bassia scoparia (KCHSC) [11] | Post-emergence action against Abutilon theophrasti (ABUTH) ([12]; 320 g/ha) | Post-emergence action against Abutilon theophrasti (ABUTH) ([12]; 1280 g/ha) | other results |
| --- | --- | --- | --- | --- | --- | --- | --- | --- | --- | --- | --- | --- | --- | --- | --- | --- | --- | --- | --- | --- | --- |
| Fc1cccnc1Oc1ccccc1-c1cc(C(F)F)no1 [Example 1-47] | 100% | 90% | 90% | 100% | 100% | 100% | 100% | 100% | 100% | 100% | 100% | 100% | very good herbicidal activity | 90% | 90% | 100% | 100% | 90% | 90% | 100% | Pre-emergence action against Veronica persica (VERPE) ([1]; dosage 320 g/ha): 90%; Pre-emergence action against Stellaria media (STEME) ([13]; dosage 320 g/ha): 100%; Pre-emergence action against Stellaria media (STEME) ([13]; dosage 1280 g/ha): 100%; herbicidal activity against the harmful plants of Tables B1-B12 in post-emergence treatment [14]: very good herbicidal activity; Pre-emergence action against Digitaria sanguinalis (DIGSA) [15]: 90% |
| Cn1nc(-c2c(F)cccc2Oc2ncc(Cl)cc2F)cc1C(F)F [Example 1-61] | 100% | 90% | 100% | 100% | 100% | 100% | 100% | 100% | 100% | 100% | 90% | 100% | very good herbicidal activity | 100% | 100% | 100% | 100% | 100% | 100% | 100% | Pre-emergence action against Abutilon theophrasti (ABUTH) [16]: 100%; Pre-emergence action against Stellaria media (STEME) ([13]; dosage 1280 g/ha): 100%; herbicidal activity against the harmful plants of Tables B1-B12 in post-emergence treatment [14]: very good herbicidal activity; Pre-emergence action against Digitaria sanguinalis (DIGSA) [15]: 100% |
